Test results from article PMC3297001, “Four Eremophilane Sesquiterpenes from the Mangrove Endophytic Fungus Xylaria sp. BL321” (2012).

Target: α-glucosidase
Test: enzyme assay with PNPG substrate, absorbance at […] nm; activation ([…]) at […], inhibition at higher concentration
Type: biochemical

IC50: 6.54 µM
Structure (SMILES): C=C(C=O)[C@@H]1C[C@@]2(C)C(=CC1=O)[C@H](OC(=O)/C=C/C=C/C(C)CC(C)CC)CC[C@@H]2C(=O)O (stereo partly shown) [compound 4, 07H239-A]
